The values that follow come from the OPERA property sets (Mansouri et al. 2018).

Consider `CC(C)(C)OC(=O)C1(S(=O)(=O)c2ccc(Cl)cc2)CC1`, for which the logP (usually a log measure of how a compound divides between an organic and an aqueous phase) was 2.68.

In turn, `COC(=O)C1(S(=O)(=O)c2ccc([N+](=O)[O-])cc2)CC1` showed a logP of 1.33.

For the molecule `COC(=O)C1(S(=O)(=O)c2ccc(Br)cc2)CCCCC1`, the logP was found to be 2.94.

In the case of `COC(=O)C1(S(=O)(=O)c2ccc(Cl)cc2)CC1`, the logP was 2.03.

Molecule `COC(=O)C1(S(=O)(=O)c2ccccc2)CC1` returned a logP of 1.43.

`COC(=O)C1(S(=O)(=O)c2ccc(Br)cc2)CCC1` came in with a logP of 2.45.

On to `COC(=O)C1(S(=O)(=O)c2ccccc2)CCC1`, for which the logP came out at 1.63.

The molecule `COC(=O)C1(S(=O)(=O)c2ccc(Cl)cc2)CCC1` showed a logP of 2.28.

In the case of `CC(C)OC(=O)C1(S(=O)(=O)c2ccc([N+](=O)[O-])cc2)CCC1`, the logP was 2.36.

On to `CC(C)OC(=O)C1(S(=O)(=O)c2ccc(Cl)cc2)CCCC1`, for which the logP was 3.16.

The molecule `COC(=O)C1(S(=O)(=O)c2ccccc2)CCCC1` displayed a logP of 1.98.

The molecule `Cc1ccc(S(=O)(=O)C2(C(=O)OC(C)C)CC2)cc1` showed a log partition coefficient (logP) of 2.52.

`CC(C)OC(=O)C1(S(=O)(=O)c2ccc(Cl)cc2)CC1` yielded a logP of 2.64.

Molecule `CC(C)OC(=O)C1(S(=O)(=O)c2ccc([N+](=O)[O-])cc2)CCCCC1` registered a log partition coefficient (logP) of 2.84.

With `CC(C)OC(=O)C1(S(=O)(=O)c2ccc([N+](=O)[O-])cc2)CCCCCC1`, the logP is 3.41.

Molecule `Cc1ccc(S(=O)(=O)C2(C(=O)OC(C)C)CCC2)cc1` showed a log partition coefficient (logP) of 2.78.

`CCOC(=O)C1(S(=O)(=O)c2ccc(C)cc2)CCC1` returned a logP of 2.31.

The molecule `COC(=O)C1(S(=O)(=O)c2ccccc2)CCCCC1` showed a logP of 2.3.

Take `COC(=O)C1(S(=O)(=O)c2ccc(C)cc2)CC1`: the log partition coefficient (logP) was found to be 1.77.

Turning to `COC(=O)C1(S(=O)(=O)c2ccc(Br)cc2)CCCC1`, the logP worked out at 2.73.

Regarding `CCOC(=O)C1(S(=O)(=O)c2ccc(C)cc2)CC1`, the logP turned out to be 2.23.

On to `CC(C)OC(=O)C1(S(=O)(=O)c2ccc([N+](=O)[O-])cc2)CC1`, for which the logP came out at 2.05.

In turn, `COC(=O)C1(S(=O)(=O)c2ccc(Br)cc2)CC1` yielded a logP of 2.32.
